Assay [1] is described as follows: PKA-R1A complex activators, counter-screen titration – biochemical, Cy5-IP20 fluorescence polarization, 1536-well, triplicate, counter-screen for PKA-R2B activator project, dose response (AID 504896).
A short description of assay [2]: Fluorescence polarization-based biochemical high throughput dose response assay for activators of the Protein Kinase A-R2B (PKA-R2B) complex. [Related pubchem assays (depositor defined):AID504700, AID504704, AID504796, AID504797].
In assay [3] the target is T1, Endoribonuclease toxin MazF (Escherichia coli K-12, UniProt P0AE70). In words: substrate-only fluorescence increase artefacts – biochemical, single-stranded RNase substrate, counter-screen for MazEF activator project, dose response (AID 588502). The class given is functional.
In assay [4] the target is T1, Endoribonuclease toxin MazF. In words: activation of MazEF endoribonuclease cleavage – biochemical, fluorescence, single-stranded RNA substrate, uHTS hits, dose response (AID 588481). Type of assay: functional.
A further assay has as its system CHO. Description: CHO cell viability loss, potency – luminescence, cytotoxicity control for TLR9-MyD88 binding inhibitor project, dose response (AID 588339).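 Note: CHO cells stably coexpressing TLR9 and MyD88 fusions from primary screen; compound exposure lasted 48 hours before viability readout.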 The class given is functional, cell-based, hamster. The conditions noted are these: Cricetulus griseus.
In the next assay the target is T2, Protein Tat (Human immunodeficiency virus type 1 group M subtype B (isolate HXB2)(HIV-1), UniProt P04608).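 Note: tat binding to TAR RNA read out by fluorescence polarization.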
T2 sequence (P04608 whole entry): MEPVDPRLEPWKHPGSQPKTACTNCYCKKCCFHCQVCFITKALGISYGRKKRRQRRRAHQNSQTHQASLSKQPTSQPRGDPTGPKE
The class given is functional.

Assay [5] in a line: viability loss in THP-1 monocytes – THP-1 cells, cytotoxicity control for Vif-APOBEC3G degradation inhibitor project, dose response (AID 1117359). Type of assay: functional. The conditions noted are these: THP-1.
Another assay concerns the target Beta Lactamase (Pseudomonas aeruginosa, UniProt Q932Y6). Description: BLA reporter interference, concentration series – BLA reporter cells, FRET fluorescence, artefact control for TLR9-MyD88 binding inhibitor project, dose response (AID 588341).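 Note: cell based assay in CHO-K1 cells stably expressing beta-lactamase.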 The class given is cell-based.
For assay [6], the target named is T3, Mannose-6-phosphate isomerase (Homo sapiens, UniProt P34949).
T3 sequence (P34949 whole entry): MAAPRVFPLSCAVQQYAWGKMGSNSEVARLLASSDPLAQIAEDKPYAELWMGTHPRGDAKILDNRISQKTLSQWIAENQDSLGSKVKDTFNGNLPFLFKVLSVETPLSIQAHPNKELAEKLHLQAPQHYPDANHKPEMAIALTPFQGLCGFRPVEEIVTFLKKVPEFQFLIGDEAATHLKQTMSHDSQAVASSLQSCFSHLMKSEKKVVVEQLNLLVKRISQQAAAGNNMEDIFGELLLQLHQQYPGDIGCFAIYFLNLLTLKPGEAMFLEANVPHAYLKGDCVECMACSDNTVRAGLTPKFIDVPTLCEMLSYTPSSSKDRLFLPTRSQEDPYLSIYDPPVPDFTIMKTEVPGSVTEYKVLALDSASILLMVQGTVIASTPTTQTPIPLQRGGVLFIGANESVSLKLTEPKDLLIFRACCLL
In words: MPI enzyme activity inhibition – biochemical, fluorescence intensity, coupled assay, primary screen (AID 1209).

Assay [7] concerns the target T4, Apoptotic protease-activating factor 1 (Homo sapiens, UniProt O14727).
T4 sequence (O14727 whole entry): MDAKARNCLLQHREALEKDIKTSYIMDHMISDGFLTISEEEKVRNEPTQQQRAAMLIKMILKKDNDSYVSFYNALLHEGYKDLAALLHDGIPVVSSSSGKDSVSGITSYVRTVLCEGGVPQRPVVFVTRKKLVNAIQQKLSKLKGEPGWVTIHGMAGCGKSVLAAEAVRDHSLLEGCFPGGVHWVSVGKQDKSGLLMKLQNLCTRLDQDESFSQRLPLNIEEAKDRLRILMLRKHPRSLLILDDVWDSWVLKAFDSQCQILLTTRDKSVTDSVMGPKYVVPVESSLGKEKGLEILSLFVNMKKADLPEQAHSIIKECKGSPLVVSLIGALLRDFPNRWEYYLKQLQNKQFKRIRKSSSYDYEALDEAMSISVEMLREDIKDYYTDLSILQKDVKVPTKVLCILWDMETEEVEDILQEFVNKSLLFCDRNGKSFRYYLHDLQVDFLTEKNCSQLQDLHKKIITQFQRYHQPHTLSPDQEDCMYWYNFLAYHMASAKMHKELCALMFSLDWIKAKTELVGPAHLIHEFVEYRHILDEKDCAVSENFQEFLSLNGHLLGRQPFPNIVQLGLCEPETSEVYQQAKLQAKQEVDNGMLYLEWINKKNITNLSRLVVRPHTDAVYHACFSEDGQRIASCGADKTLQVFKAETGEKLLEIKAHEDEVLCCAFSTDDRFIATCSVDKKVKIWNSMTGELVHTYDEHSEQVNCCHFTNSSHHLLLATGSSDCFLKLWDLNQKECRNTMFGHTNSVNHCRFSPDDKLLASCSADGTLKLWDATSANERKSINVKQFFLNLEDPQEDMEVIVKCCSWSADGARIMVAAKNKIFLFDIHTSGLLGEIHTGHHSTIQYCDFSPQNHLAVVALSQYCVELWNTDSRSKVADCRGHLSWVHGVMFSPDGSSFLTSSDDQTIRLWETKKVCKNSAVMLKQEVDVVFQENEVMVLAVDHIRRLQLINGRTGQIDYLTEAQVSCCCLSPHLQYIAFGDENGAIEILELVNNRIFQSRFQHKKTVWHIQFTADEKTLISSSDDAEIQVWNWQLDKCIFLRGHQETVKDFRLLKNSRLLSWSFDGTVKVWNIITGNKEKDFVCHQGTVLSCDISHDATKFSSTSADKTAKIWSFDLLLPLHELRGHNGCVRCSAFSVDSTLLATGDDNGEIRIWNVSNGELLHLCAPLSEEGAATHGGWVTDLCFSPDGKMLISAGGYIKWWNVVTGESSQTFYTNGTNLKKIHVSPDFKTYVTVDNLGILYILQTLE
The class given is functional.

The next assay relates to NIH3T3. In words: mammalian cell viability counter-check – Alamar Blue, fluconazole, dry powder, cytotoxicity control for antifungal drug resistance project, dose response (AID 488809). The class given is functional, cell-based. The conditions noted are these: Mus musculus. (In general: The colour change of resazurin is a common sign of viable cells or microbes.)
Assay [8] concerns HEK293. In words: SAR Analysis of small molecule inhibitors of T-cell specific antigen receptor-induced NF-kB activation in a HEK-293T cell line using a luminescence assay - Set 2. [Related pubchem assays (depositor defined):AID435003, AID435012, AID489026]. The class given is functional, cell-based. The conditions noted are these: Homo sapiens.
A further assay relates to Jurkat. In words: SAR Analysis of small molecule inhibitors of T-cell specific antigen receptor-induced NF-kB activation in a Jurkat cell line using a luminescence assay - Set 2. [Related pubchem assays (depositor defined):AID435003, AID435012, AID465]. The class given is functional, cell-based. The conditions noted are these: Homo sapiens.
Assay [9] concerns HEK293. In words: HEK293T cell viability loss, resazurin readout – resazurin fluorescence, cytotoxicity control for NF-kB activator project, SAR follow-up (AID 493251). The class given is functional, cell-based. The conditions noted are these: Homo sapiens.

Activity calls are given as the source filed them. Some results are limits rather than exact numbers.

One may read the EC50 as the concentration that produces a half-maximal response. For orientation: IC50 means the midpoint of a concentration-inhibition curve. Usually CC50 stands for the concentration giving 50% cytotoxicity. One may read the AC50 as the concentration giving half of the maximal activity seen.

T1 sequence (P0AE70 whole entry): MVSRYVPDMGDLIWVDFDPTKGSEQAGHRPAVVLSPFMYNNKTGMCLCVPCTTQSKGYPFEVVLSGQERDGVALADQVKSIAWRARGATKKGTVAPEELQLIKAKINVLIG
Chain of Beta Lactamase (Q932Y6 whole entry): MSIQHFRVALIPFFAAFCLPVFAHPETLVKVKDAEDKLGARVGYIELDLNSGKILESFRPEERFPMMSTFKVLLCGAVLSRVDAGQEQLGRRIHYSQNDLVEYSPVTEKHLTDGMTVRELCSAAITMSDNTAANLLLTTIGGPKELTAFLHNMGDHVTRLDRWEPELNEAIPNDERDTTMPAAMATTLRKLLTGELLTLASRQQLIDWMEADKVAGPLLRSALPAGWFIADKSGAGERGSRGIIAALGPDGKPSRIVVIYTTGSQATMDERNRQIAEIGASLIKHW

In the case of `O=C(O)c1sccc1SCc1ccc(Cl)cc1Cl`, the results for the EC50 in assay [1] and in assay [2] were > 114 µM (inactive) and 66.9 µM (inactive), respectively.

On to `CCCn1c(-c2cccs2)nc2c1c(=O)[nH]c(=O)n2Cc1ccccc1`, for which the EC50 in assay [3] and in [4] was > 99 µM (inactive) each time.

Regarding `N#Cc1ccc(-c2ccco2)nc1SCC(=O)c1ccc(Cl)cc1`, the results for the IC50 in the assay on CHO, on Protein Tat and on Beta Lactamase were 16.7 µM (inactive), > 100 µM (active) and 10.1 µM (inactive), respectively. Besides, in assay [5], the cytotoxic concentration (CC50) is > 40 µM (active).

As to `O=C(N/N=C/c1ccc(-c2ccccc2[N+](=O)[O-])o1)c1cccnc1`, the concentration for half-maximal inhibition (IC50) in [6] was > 50 µM (not active); in assay [7] it was 39.2 µM (active).

For the compound `O=C(Cn1nc(-c2ccccc2)c2ccccc21)N1CCc2ccccc2C1`, the half-maximal activity concentration (AC50) in the assay with NIH3T3 is 34.9 µM (active).

`CNC(=O)CCc1nc(-c2ccccc2)no1`: the IC50 in the assay with HEK293 [8] was > 80 µM (inactive); in the assay on Jurkat, > 79 µM (inactive); with HEK293 [9], > 80 µM (inactive).

Values taken from ChEMBL document CHEMBL1201862, “PubChem BioAssay data set” (2004).
